Data set [1] addresses T1, gamma interferon receptors on Daudi cells (Homo sapiens, UniProt P15260).
T1 construct: host or cells: Daudi cells (human B lymphoblast, Burkitt lymphoma)
T1 sequence (P15260 18-489): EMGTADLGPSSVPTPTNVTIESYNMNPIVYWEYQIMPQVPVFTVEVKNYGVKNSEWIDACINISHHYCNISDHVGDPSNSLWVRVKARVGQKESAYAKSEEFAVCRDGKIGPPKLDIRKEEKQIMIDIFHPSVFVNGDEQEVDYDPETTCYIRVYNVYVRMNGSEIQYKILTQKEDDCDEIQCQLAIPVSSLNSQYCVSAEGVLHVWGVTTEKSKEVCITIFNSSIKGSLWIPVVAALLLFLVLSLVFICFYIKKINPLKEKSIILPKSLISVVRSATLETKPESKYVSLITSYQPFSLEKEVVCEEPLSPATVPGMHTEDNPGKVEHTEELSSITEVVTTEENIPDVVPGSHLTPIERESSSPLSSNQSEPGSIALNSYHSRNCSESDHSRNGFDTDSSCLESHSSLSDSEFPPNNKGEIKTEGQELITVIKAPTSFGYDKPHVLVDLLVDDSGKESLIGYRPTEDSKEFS
In words: Inhibition of the binding of 125I-recombinant human gamma interferon to Daudi cells (radioligand-receptor assay). The note with it: for inhibition of the binding of the labeled interferon (in words; type of inhibition): FIGS. 1-4; for Ki: specific binding of 125I-recombinant human gamma interferon to Daudi cells, 2 hours at 4° C., Cheng et al. method. The protocol: The receptor assay employed a standard mixture of 6×10^5 Daudi cells in 1 ml of binding medium (RPMI 1640 medium, 10% fetal bovine serum, 0.02% sodium azide) containing 200,000 cpm of the labeled interferon. Controls additionally contained 1 μg of unlabeled interferon to determine nonspecific binding. Assays were carried out by adding 0.1 ml aliquots of binding medium with or without varying amounts of a potentially inhibitory polypeptide or protein to the standard mixtures, and incubating the combined mixtures for 2 hours at 4° C.
Following the incubation, the cells were pelleted by centrifugation at 13,000× g for 30 seconds at 4° C, and the supernatants were discarded. The cells were resuspended in 0.2 ml of fresh binding medium without labeled interferon at 4° C., after which the cells were centrifuged at 13,000× g for 2 minutes through a layer of dibutyl phthalate and dioctyl phthalate [0.2 ml of a 1:1 (vol/vol) mixture] to remove residual labeled interferon that was not specifically bound. Inhibition constants (Ki) were calculated according to the method of Cheng et al. [Biochem. Pharmacol. 22:3099 (1973)], in which [formula] where [L] is the ligand concentration and IC50 is the concentration of inhibitor required to decrease binding by 50%.

Data set [2] has as its system murine encephalomyocarditis virus. The data set is described as follows: Antiviral activity assay, human diploid foreskin cells infected with murine encephalomyocarditis virus (Rubinstein et al.). The data set is classed as cell-based. The source says: It also is a potent inducer of the maturational differentiation of pro-monocytes to premacrophages. […] 37:755 (1981)]. […] 132:240 (1984)].

For data set [3], the system named is antiviral effects of recombinant human gamma interferon D. In words: Inhibition of antiviral effects of recombinant human gamma interferon D on human diploid foreskin cells challenged with encephalomyocarditis virus (CPE scoring). The data set is classed as cell-based. The protocol:
Control Medium A, various dilutions in Medium A of recombinant human gamma Interferon D in the presence of a fixed concentration of polypeptide No. I, or various dilutions of Medium A of polypeptide No. III in the presence of a fixed concentration of the interferon were pipetted in 0.1 ml total volumes into the wells of 96-well flat bottom microtiter plates.
Aliquots of a suspension of human diploid foreskin cells (0.1 ml, 3.5×10^5 cells/ml) in Medium A were pipetted into the wells of the microtiter plates, and the plates were incubated for 4 hours in a 37° C., 5% CO2 incubator. […]
A 0.025-0.05 aliquot of a solution of crystal violet stain (Sigma Chemical Co., St. Louis, Mo.; 0.485% in an aqueous solution containing 3.2% formaldehyde and 32.3% 95% ethanol) was added to each well, and the plates were allowed to stand for 30 minutes for color development. The stain solution was removed and the wells were washed at least three times with distilled water, after which the plates were scored for CPE with the aid of a fluorescent light viewer.
CPE was graded semi-quantitatively on a scale of 0 to 4, with grade O CPE corresponding to a complete absence of cell lysis as measured by cell staining with crystal violet and grade 4 CPE corresponding to total cell lysis and lack of staining.

Ends that are not written are not given here.

For the molecule “AKKLSKDRMKKYMARRKWQKTGHAV [Polypeptide I]”, in data set [1] (5 μM polypeptide, Daudi cells), the “Kd of labeled interferon in the presence of polypeptide (Scatchard analysis)” value was “marked increase”. Turning to poly(D-lysine), the “inhibition of the binding of the labeled interferon (in words; type of inhibition)” value in data set [1] (Daudi cells) is given as “strong competitive inhibitors”. Moreover, in data set [1], the Ki turned out to be 190 nM.

Consider poly(L-glutamic acid), for which the Ki in data set [1] turned out to be 290 nM. Take poly(L-lysine): the “inhibition of the binding of the labeled interferon (in words; type of inhibition)” value in data set [1] (Daudi cells) was “strong competitive inhibitors”. The Ki in data set [1] came to 11000 nM.

Regarding protamine sulfate, in data set [1], the inhibitory constant (Ki) was 1100 nM.

B1: Recombinant human gamma interferon D: recombinant human gamma interferon D prepared from transformed E. coli, stimulus in antiviral and HLA-DR assays (protein, UniProt P01579 24-161, looked up)
Interferon gamma: QDPYVKEAENLKKYFNAGHSDVADNGTLFLGILKNWKEESDRKIMQSQIVSFYFKLFKNFKDDQSIQKSVETIKEDMNVKFFNSNKKKRDDFEKLTNYSVTDLNVQRKAIHELIQVMAELSPAAKTGKRKRSQMLFRG
modifications: E. coli recombinant
notes: recombinant human gamma interferon D prepared from transformed E. coli, stimulus in antiviral and HLA-DR assays
As for B1, the antiviral specific activity entry in data set [2] is given as “about 4×10^6 units/mg”. Further, the CPE grade in data set [3] (interferon alone, 30 pM, scale 0 to 4) worked out at 2. Moreover, in data set [3] (interferon alone, 1,200 pM), the “cell protection / CPE” value is given as “complete cell protection”.

A word on the Ki: it is a measure of affinity in units of concentration, obtained from inhibition or displacement.

(Values after patent US5632988A, “Polypeptide inhibitors of gamma interferon” (Schering Corporation, priority 1992, dated 1997).)
